IC50, DC50 and Dmax data for six compounds are collected here from patent US20260166159A1, “KRAS G12D DEGRADATION AGENT, AND PREPARATION METHOD AND USE THEREFOR” (LEADINGTAC PHARMACEUTICAL (SHAOXING) CO., LTD., priority 2022, published 2026).

Common to all, as to format: cell-based
Test [1] has as its system KRAS G12D mutant human lung cancer cell A427. Nature of the test: 3D cell proliferation inhibition assay, A427. The settings on record: A-427, 168 h, A427, 7 days, CTG. In short, it runs like this: (§1)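 Cells were seeded at 5×10^2 cells/well in low-adsorption plates with compound (10000–0.026 nM final, 0.2% DMSO) and grown for 7 days at 37 °C, 5% CO2. Viability was read by CTG luminescence after 60 min at room temperature. IC50 came from log concentration–inhibition curve fits, normalised to DMSO and medium-only controls.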

The subject of test [2] is KRAS G12D mutant human gastric cancer cell AGS. Briefly: 3D cell proliferation inhibition assay, AGS. The settings on record: 168 h, 7 days, CTG. In short, it runs like this:
as §1

The target in a further test is T1, KRAS-G12D (Homo sapiens, UniProt P01116, G12D).
T1 construct: endogenous in cells; host or cells: A-427 (ATCC), AGS, AsPc-1, Panc 04.03
Nature of the test: KRAS-G12D degradation assay (Western Blot), A-427 cells. The note with it: A427 cells, 24 h; for Dmax: A-427. The essentials:
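Each KRAS G12D mutant line (A-427, AGS, AsPc-1, Panc 04.03) was seeded at 5×10^5 cells/well and treated 24 h at 37 °C with 0.03–3000 nM compound (final DMSO 0.25%). KRAS in lysates was measured by Western blot, normalized to β-actin and compared with controls, giving DC50 and Dmax from curve fits.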
In general terms: A western blot detects proteins with antibodies after separation by electrophoresis.

For orientation: IC50 means the concentration that inhibits the measured activity by half. Higher therefore signals lower potency. The DC50 is the concentration giving 50% degradation. Read a high DC50 as a less potent degrader. Usually Dmax stands for the greatest extent of degradation seen. The low end stands for a partial loss of target, the high end for a fuller loss of target.

T1 sequence (P01116 1-188 isoform P01116-2 G12D): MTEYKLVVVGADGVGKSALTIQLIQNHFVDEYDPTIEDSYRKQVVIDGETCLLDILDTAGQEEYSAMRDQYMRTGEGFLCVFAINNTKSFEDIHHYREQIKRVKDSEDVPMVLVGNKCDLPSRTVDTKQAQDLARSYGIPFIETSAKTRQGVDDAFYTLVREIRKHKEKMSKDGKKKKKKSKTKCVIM

In test [1] (class symbols), `C#Cc1c(F)ccc2cc(O)cc(-c3ncc4c(N5CC6CCC(C5)N6)nc(OC[C@@H]5CCCN5CCC5CCC6(CC5)CCN(C(=O)c5ccc(Cl)c(N7CCC(=O)NC7=O)c5)CC6)nc4c3F)c12` [Example 32, 1-(5-(9-(2-((S)-2-(((4-(3,8-diazabicyclo[3.2.1]octan-3-yl)-7-(8-ethynyl-7-fluoro-3-hydroxynaphthalen-1-yl)-8-fluoropyrido[4,3-d]pyrimidin-2-yl)oxy)methyl)pyrrolidin-1-yl)ethyl)-3-azaspiro[5.5]undecane-3-carbonyl)-2-chlorophenyl)dihydropyrimidine-2,4(1H,3H)-dione] returned an IC50 of 1000 to 10000 nM. Moreover, the IC50 in test [2] (class symbols) lay in the range of 1000 to 10000 nM. Further, at KRAS-G12D (class symbols), the DC50 was in the range of 1000 to 10000 nM and the Dmax is under 30%.

In test [1] (class symbols), `C#Cc1c(F)ccc2cc(O)cc(-c3ncc4c(N5CC6CCC(C5)N6)nc(OCC56CC(CN7CCN(CC8CCC9(CC8)CCN(C(=O)c8ccc(Cl)c(N%10CCC(=O)NC%10=O)c8)CC9)CC7)(C5)C6)nc4c3F)c12` [Example 33, 1-(5-(9-((4-((3-(((4-(3,8-diazabicyclo[3.2.1]octan-3-yl)-7-(8-ethynyl-7-fluoro-3-hydroxynaphthalen-1-yl)-8-fluoropyrido[4,3-d]pyrimidin-2-yl)oxy)methyl)bicyclo[1.1.1]pentan-1-yl)methyl)piperazin-1-yl)methyl)-3-azaspiro[5.5]undecane-3-carbonyl)-2-chlorophenyl)dihydropyrimidine-2,4(1H,3H)-dione] displayed an IC50 of 100 to 500 nM. Besides, in test [2] (class symbols), the IC50 is at most 50 nM. In addition, on KRAS-G12D (class symbols), the 50% degradation concentration (DC50) was at most 50 nM and the Dmax fell in the range of 80 to 100%.

With `C#Cc1c(F)ccc2cc(O)cc(-c3ncc4c(N5CC6CCC(C5)N6)nc(OCC5(CN6CCN(CC7CCC8(CC7)CCN(C(=O)c7ccc(C)c(N9CCC(=O)NC9=O)c7)CC8)CC6)CC5)nc4c3F)c12` [Example 36, 1-(5-(9-((4-((1-(((4-(3,8-diazabicyclo[3.2.1]octan-3-yl)-7-(8-ethynyl-7-fluoro-3-hydroxynaphthalen-1-yl)-8-fluoropyrido[4,3-d]pyrimidin-2-yl)oxy)methyl)cyclopropyl)methyl)piperazin-1-yl)methyl)-3-azaspiro[5.5]undecane-3-carbonyl)-2-methylphenyl)dihydropyrimidine-2,4(1H,3H)-dione], the IC50 in test [1] (class symbols) and in test [2] (class symbols) was at most 50 nM throughout. The DC50 at KRAS-G12D (class symbols) was at most 50 nM. The Dmax on KRAS-G12D (class symbols) fell in the range of 80 to 100%.

In turn, `C#Cc1c(F)ccc2cc(O)cc(-c3ccc4c(N5CC6CCC(C5)N6)nc(OCC5(CN6CCN(CC7CCC8(CC7)CCN(C(=O)c7ccc(C)c(N9CCC(=O)NC9=O)c7)CC8)CC6)CC5)nc4c3F)c12` [Example 42, 1-(5-(9-((4-((1-(((4-(3,8-diazabicyclo[3.2.1]octan-3-yl)-7-(8-ethynyl-7-fluoro-3-hydroxynaphthalen-1-yl)-8-fluoroquinazolin-2-yl)oxy)methyl)cyclopropyl)methyl)piperazin-1-yl)methyl)-3-azaspiro[5.5]undecane-3-carbonyl)-2-methylphenyl)dihydropyrimidine-2,4(1H,3H)-dione] displayed an IC50 in test [1] (class symbols) of at most 50 nM. The IC50 in test [2] (class symbols) is at most 50 nM. At KRAS-G12D (class symbols), the DC50 is at most 50 nM and the Dmax fell in the range of 80 to 100%.

In test [1] (class symbols), `C#Cc1cccc2cc(O)cc(-c3ncc4c(N5CC6CCC(C5)N6)nc(OCC5(CN6CCN(CC7CCC8(CC7)CCN(C(=O)c7ccc(Cl)c(N9CCC(=O)NC9=O)c7)CC8)CC6)CC5)nc4c3F)c12` [Example 57, 1-(5-(9-((4-((1-(((4-(3,8-diazabicyclo[3.2.1]octan-3-yl)-7-(8-ethynyl-3-hydroxynaphthalen-1-yl)-8-fluoropyrido[4,3-d]pyrimidin-2-yl)oxy)methyl)cyclopropyl)methyl)piperazin-1-yl)methyl)-3-azaspiro [5.5]undecane-3-carbonyl)-2-chlorophenyl)dihydropyrimidine-2,4(1H,3H)-dione] registered an IC50 of at most 50 nM. In test [2] (class symbols), the IC50 is at most 50 nM. At KRAS-G12D (class symbols), this compound showed a DC50 of at most 50 nM and a Dmax of 80 to 100%.

In test [1] (numeric values), `C#Cc1c(F)ccc2cc(O)cc(-c3ncc4c(N5CC6CCC(C5)N6)nc(OCC(C)CN5CCN(CC6CCC7(CC6)CCN(C(=O)c6ccc(OC)c(N8CCC(=O)NC8=O)c6)CC7)CC5)nc4c3F)c12` (stereo not drawn) [Example 84, 1-(5-(9-((4-(3-((4-(3,8-diazabicyclo[3.2.1]octan-3-yl)-7-(8-ethynyl-7-fluoro-3-hydroxynaphthalen-1-yl)-8-fluoropyrido[4,3-d]pyrimidin-2-yl)oxy)-2-methylpropyl)piperazin-1-yl)methyl)-3-azaspiro[5.5]undecane-3-carbonyl)-2-methoxyphenyl)dihydropyrimidine-2,4(1H,3H)-dione] yielded an IC50 of 6.5 nM. The compound further came in with an IC50 in test [2] (numeric values) of 1.05 nM. At KRAS-G12D (numeric values), this compound showed a DC50 of 4.67 nM and a Dmax of 86.3%.
